Patent US8299119B2, “Biologically active compounds” (Bio-Active Export Pty. Ltd., priority 2005, dated 2012)
≈ marks a conversion by molar mass, not a printed value.

How the values were obtained:
[1] = test system: prostaglandin E2 production in 3T3 Swiss Albino fibroblast cells; assay: Inhibition of prostaglandin E2 production in calcium ionophore stimulated cells; assay type: cell-based; parameters: Anti-inflammatory capacity, Average (PGE2 assay): unit: %; settings: for IC50: range of concentrations, read-out: IC 50 values, Average (PGE2 assay); for dose response in PGE2 assay: over the concentration range tested
Description: Samples were tested for their ability to inhibit prostaglandin E2 production in cells stimulated by a calcium ionophore, compared to stimulated cells not exposed to any sample. Inhibition was tested over a range of 3 concentrations, although a dose response was not observed for most samples. This is probably because the samples are very efficient at inhibiting PGE2 production and the range of concentrations used was too narrow. The data presented are the maximal inhibition of PGE2 observed for a given sample.
3T3 Swiss Albino fibroblast cell suspension (Phenol-red free DMEM with 10% FBS and 2 mM L-glutamine) was plated out into 96-well tissue culture plates (1×10^5 cells/mL, 100 μL/well). The cells were cultured overnight at 37° C., 5% CO2. […] Cells+samples were incubated (37° C., 3 hours), before the addition of calcium ionophore A23187. Following 20 min incubation, the plate was centrifuged (1000 g, 3 min) and the supernatants were removed. Included on the plate was a positive control (aspirin; 100 μM), and DMSO control, both with and without calcium ionophore A23187.
The supernatants were diluted by serial dilution (1:500) in enzyme immunoassay (EIA) buffer, and assayed for PGE2 using the Prostaglandin E2 EIA Monoclonal Kit (Cayman Chemical; Cat No. 514010), according to manufacturers' instructions.

[2] = ORAC (oxygen radical absorbance capacity) assay; settings: for ORAC value: Centipeda fractions, Table 7; for Antioxidant capacity (ORAC): pure compounds, Table 13
Description: The antioxidant capacity of the Centipeda fractions was measured using the ORAC procedure (Oxygen Radical Absorbance Capacity). A water soluble analogue of vitamin E, Trolox, was used as a reference standard, and the ORAC value is expressed as μmol of trolox equivalence (TE) per gram of sample extract.
The ORAC assay employed in this study measured the antioxidant scavenging activity in the test samples, against peroxyl radicals induced by 2,2′-azobis(2-amidinopropane)dihydrochloride (AAPH) at 37° C. Fluorescein was used as the fluorescent probe. The method used is based on that of Huang et al.^1, Huang et al.^2 and Prior et al.^3 ^1 Huang et al., 2002. Journal of Agricultural and Food Chemistry 50(16): 1815-1821.^2 Huang et al., 2002. Journal of Agricultural and Food Chemistry 50(16): 4437-4444.^3 Prior et al., 2003. Journal of Agricultural and Food Chemistry 51(11): 3273-3279.
All samples were assayed using the hydrophilic ORAC procedure in serial dilution×4 with acetone:water:acetic acid; 70:29.5:0.5 (A:W:A,) and in quadruplicate, starting with the concentration relevant to the sample, depending on the approximated antioxidant capacity from an initial screen.
Trolox, a water soluble analogue of vitamin E, was used as a reference standard. A trolox standard curve was established from trolox standards prepared at 100, 50, 25, and 12.5 μM in A:W:A.
Briefly, 10 μL fluorescein (6.0×10^−7 M), 20 μL samples/standards/control/blank (A:W:A) and 170 μL […] (20 mM) were added per well. Immediately after loading, the plate was transferred to the plate reader preset to 37° C., and the fluorescence was measured 35 times at one minute intervals. The fluorescence readings were referenced to solvent blank wells. The final ORAC values were calculated using a regression equation between the Trolox concentration and the net area under the fluorescein decay curve, and where possible were expressed as Trolox equivalents (TE) as micromoles per gram of sample.

COc1c(O)cc2oc(-c3ccc(O)cc3O)c(OC3OC(CO)C(O)C(O)C3O)c(=O)c2c1O (single isomer, unassigned) [Compound 1, 2′,4′,5,7-tetrahydroxy-6-methoxyflavone-3-O-β-glucopyranoside]
Anti-inflammatory capacity, Average (PGE2 assay) ([1]; 5.0 μg/mL): 52.2
IC50 ([1]; Fibroblast): 1.47 µg/mL (≈ 2.97 µM)
inhibition at 125 µg/mL ([1]; Fibroblast, sample 0.125 mg/mL, maximal inhibition observed, read-out: % inhibition of PGE2 production ± SEM): 67.8 ± 2.86%
ORAC value [2]: 3871.9 μmol TE/g of extract
Antioxidant capacity (ORAC) [2]: 12178 TE/g extract

O=C(/C=C/c1ccc(O)c(O)c1)OC(/C=C(\O)C(=O)O)C(OC(=O)/C=C/c1ccc(O)c(O)c1)C(O)C(=O)O (single isomer, unassigned) [Compound 2, 4ξ,5ξ-Di-O-caffeoyl-2,6ξ-dihydroxyhept-2-en-1,7-dioic acid]
Anti-inflammatory capacity, Average (PGE2 assay) ([1]; 5.0 μg/mL): 67.38
IC50 ([1]; Fibroblast): 2.48 µg/mL (≈ 4.54 µM)
inhibition at 62.5 µg/mL ([1]; Fibroblast, sample 0.0625 mg/mL, maximal inhibition observed, read-out: % inhibition of PGE2 production ± SEM): 74.5 ± 8.06%
ORAC value [2]: 3415.1 μmol TE/g of extract
Antioxidant capacity (ORAC) [2]: 13781 TE/g extract

CC(=O)Oc1ccccc1C(=O)O [Aspirin, aspirin, reference compound]
Anti-inflammatory capacity, Average (PGE2 assay) ([1]; 100 μM, positive control): 54.6
inhibition at 10 µM ([1]; Fibroblast, 0.01 mM, positive control, read-out: % inhibition of PGE2 production ± SEM): 57.4 ± 14.4%

COC(=O)C(O)C(OC(=O)/C=C/c1ccc(O)c(O)c1)C(/C=C(\O)C(=O)O)OC(=O)/C=C/c1ccc(O)c(O)c1 (stereo not drawn) [Compound 8, 4ξ,5ξ-Di-O-caffeoyl-2,6ξ-dihydroxyhept-2-en-1,7-dioic acid-7-methyl ester]
Anti-inflammatory capacity, Average (PGE2 assay) ([1]; 5.0 μg/mL): 73.50
IC50 ([1]; Fibroblast): 4.73 µg/mL (≈ 8.44 µM)
Antioxidant capacity (ORAC) [2]: 8122 TE/g extract

COC(=O)/C(O)=C/C(OC(=O)/C=C/c1ccc(O)c(O)c1)C(OC(=O)/C=C/c1ccc(O)c(O)c1)C(O)C(=O)O (stereo not drawn) [Compound 9, 4ξ,5ξ-Di-O-caffeoyl-2,6ξ-dihydroxyhept-2-en-1,7-dioic acid-1-methyl ester]
Anti-inflammatory capacity, Average (PGE2 assay) ([1]; 5.0 μg/mL): 45.00
dose response in PGE2 assay [1]: did not exhibit a standard dose response type curve
Antioxidant capacity (ORAC) [2]: 6822 TE/g extract

COC(=O)/C(O)=C/C(OC(=O)/C=C/c1ccc(O)c(O)c1)C(OC(=O)/C=C/c1ccc(O)c(O)c1)C(O)C(=O)OC (stereo not drawn) [Compound 10, 4ξ,5ξ-Di-O-caffeoyl-2,6ξ-dihydroxyhept-2-en-1,7-dioic acid-dimethyl ester]
Anti-inflammatory capacity, Average (PGE2 assay) ([1]; 5.0 μg/mL): 73.95
dose response in PGE2 assay [1]: did not exhibit a standard dose response type curve
Antioxidant capacity (ORAC) [2]: 3957 TE/g extract
